Results published in US7605175B2, “Inhibitors of cyclin-dependent kinases, compositions and uses related thereto” (GPC Biotech AG, priority 2001, dated 2009).

Legend:
[1] = biological target: T1, Cdk4/cyclin D1 (Homo sapiens, UniProt P11802); assay: Biochemical kinase assay Cdk4/cyclin D1; conditions: Table 6
T1 construct: made in house; host or cells: Sf9 insect cells
Excerpt: (§1) Enzymes: Cdc2/cyclin B was obtained from commercial sources. Cdk2/his-cyclin Eshort was expressed in Sf9 cells. Cdk2/cyclin A, cdk4/cyclin D1, and cdk6/cyclin D2 were expressed in Sf9 cells. Protein kinase A (catalytic subunit, from bovine heart) and protein kinase C (mixed isozymes from rat brain) were obtained from commercial sources.
(§2) Substrates: Histone H1 was from commercial sources. GST-Rb is glutathione-S-trans-ferase fused to the N-terminal of residues 379-928 of the Rb protein.
(§3) Cdk2/cyclin E, Cdk2/cyclin A, Cdk4/cyclin D1, and Cdk6/cyclin D2 activity was determined using a glutathione-sepharose capture assay. The enzymes were expressed in Sf9 insect cells as heterodimers, and the substrate (GST-Rb) was glutathione-S-transferase fused to residues 379 to 928 of Rb retinoblastoma protein, expressed in E. coli. The assay solution contained 50 mM Tris.HCl, 10 mM MgCl2, 1 mM dithiothreitol, 50 μM adenosine triphosphate, 2 μCi [γ-^33P]adenosine triphosphate, 10% dimethylsulfoxide (from compounds), pH 7.5, 40 μg GST-Rb, and enzyme in a 100 μL volume. Compounds were added at various concentrations between 1 nM and 10 μM. The reaction was allowed to proceed for 15 min at 30° C. and was stopped by the addition of 70 μL of stop solution (237 mM disodium ethylene-diamine tetraacetate, 105 mM adenosine triphosphate, pH 8.0). The GST-Rb was captured by binding to glutathione-sepharose bead (Amersham) for 110 min, and the suspension was filtered through a glass fiber filter. After washing the retained beads five time with phosphate-buffered saline containing 0.3% (w/v) Tween-20, the amount of ^33P incorporated was determined by scintillation counting after adding 100 μL scintillant. Relative activity was determined by dividing the amount of radioactivity incorporated in the presence of compound by the amount of radioactivity incorporated in a control experiment containing DMSO alone but no compound. The background radioactivity, determined in an experiment containing 50 mM disodium ethylenediamine tetraacetate in place of compound, was subtracted from all results before calculations.

[2] = biological target: T2, Cdk2/cyclin E (Homo sapiens, UniProt P24941); assay: Biochemical kinase assay Cdk2/cyclin E; conditions: Table 6
T2 construct: made in house; host or cells: Sf9 insect cells
Excerpt: as §1, §2, §3

[3] = biological target: T3, Cdc2/cyclin B (Homo sapiens, UniProt P06493); assay: Biochemical kinase assay Cdc2/cyclin B; conditions: Table 6
T3 construct: purchased
Excerpt: as §1, §2
Assays: Cdc2/cyclinB activity was determined by measuring incorporation of radio-activity from adenosine [γ-^32P]triphosphate into Histone H1 using a TCA precipitation assay. Cdc2/cyclin B kinase and Histone H1 were obtained from commercial sources. The final assay solution contained 50 mM Tris.HCl, 10 mM MgCl2, 1 mM dithiothreitol, 50 μM adenosine triphosphate, 2 μCi ^32P, 10% dimethylsulfoxide (from compounds), pH 7.5, 20 μg Histone H1, 6 U enzyme in a 50 μL volume. Compounds were added at various concentrations between 1 nM and 10 μM. The reaction was started with the addition of enzyme, allowed to proceed for 20 min at 30° C., and stopped by the addition of 20 μL of stop solution (237 mM disodium ethylenediamine tetraacetate, 105 mM adenosine triphosphate, pH 8.0). The protein was precipitated by the addition of 35 μL 70% (w/v) trichloroacetic acid, and the precipitate was captured on a 96-well glass fiber filter plate (Millipore, Inc.), which had been wet with 25% (w/v) trichloroacetic acid. The filter was washed ten times with 25% (w/v) trichloroacetic acid, and the amount of incorporated ^32P was determined by scintillation counting after adding 100 μL scintillant (Microscint 20, Packard Instruments). Relative activity was determined by dividing the amount of radioactivity incorporated in the presence of compound by the amount of radioactivity incorporated in a control experiment containing DMSO alone but no compound. The background radioactivity, determined in an experiment containing 50 mM EDTA in place of compound, was subtracted from all results before calculations.

[4] = system: HCT-116 cells; assay: Calcein AM viability assay, HCT-116; type: cell-based; conditions: Homo sapiens
Method: The potency of Cdk inhibitors, as measured by loss of cellular viability, was determined with the Calcein AM assay (Molecular Probes). Calcein AM is a substrate of intracellular esterases, which is cleaved only in viable cells to generate a fluorescent product that can be quantified with a fluorescent plate reader. The fluorescent signal is proportional to the number of viable cells, and thus loss of signal in response to the exposure of cells to Cdk inhibitors correlates with a loss of viability. This assay can distinguish cell cycle arrest, in which cells may still by viable, from loss of viability and is thus well suited for the evaluation of Cdk inhibitors. A compound that is a potent cytotoxic, may cause significant loss of cell viability in such assay.
Cellular IC50's were determined in the human colorectal carcinoma cell line, HCT-116, and the normal human fibroblast, IMR90. Protein adjusted IC50's were also determined in HCT-116.
HCT-116 or IMR90 cells were recovered from sub-confluent plates by trypsinization and 1,000 or 4,000 cells, respectively, were plated in 24-well dishes and incubated overnight at 37° C., 5% CO2. HCT-116 cells were cultured in RPMI-1640, 10% FCS, and IMR90 cells were cultured in Minimum Essential Medium-alpha, 10% FCS. After overnight incubation to allow adherence, the media was aspirated from each well and replaced with media containing a test compound at a concentration from 0 to 250 nM, spanning a total of 7 doses. The plates were returned to the incubator and cultured for an additional 72 hours (3 days). […] After 72-hours incubation with the test compound, the cells were washed twice with 1×PBS, taking special care to remove all residual buffer.
A 5 μM Calcein AM solution was prepared by dissolving a […] aliquot of Calcein (Molecular Probes catalog # C3100) in 50 μl DMSO. After the Calcein had completely dissolved (10 minutes at room temperature), it was diluted into 10 ml PBS. Calcein/PBS (0.5 ml) was added to each well. The plates were incubated for 75 minutes at 37° C. (protected from light) and the fluorescent signal was read on a fluorescent plate reader (excitation 485/20 and emission 530/25).

[5] = system: HCT-116 cells; assay: BrdU incorporation assay; type: cell-based; conditions: Homo sapiens, read-out: Brd U, concentration that inhibits BrdU incorporation by 50%
Method: This method measured the percentage of cells that incorporated the nucleotide analog, BrdU, into newly synthesized DNA as cells progressed through the S phase of the cell cycle. The inhibition of BrdU incorporation was used as a measure of a Cdk inhibitor's effect on S phase progression and DNA replication.
3 sets of HCT-116 cells (100,000 cells/set) were plated in T25 flasks and incubated with a test compound as above. Analysis was done at 24, 48, and 72 hours. BrdU was added to each T-25 flask from a stock of 10 mg/ml to a final concentration of 10 μM and the cells were incubated for an additional 16-18 hours at 37° C. The cells were then prepared for flow cytometric analysis according to manufacturer's protocol (BrdU Flow kit, BD-Pharmingen catalogue #2354KK) as follows:
Cells were harvested (adherent and floating) from the T25 flasks directly into Falcon 12×75 flow cytometric tubes as above followed by fixation and permeabilization with the addition of 100 μl of Cytofix/Cytoperm buffer (30 minutes, room temperature). The cells were then washed with 1 ml of Perm Wash buffer and the cell pellets were resuspended in 100 μl Cytoperm Plus buffer and incubated on ice for 10 minutes. The cells were then washed again with 1 ml of Perm Wash buffer and the fixation was repeated in 100 μl of Cytofix/Cyto Perm buffer for 10 minutes at room temperature. The cells were then washed with 1 ml of Perm Wash buffer. The cells were next treated for one hour at 37° C. with 100 μl DNase to expose incorporated BrdU followed by another wash step with 1 ml of Perm Wash buffer. […] Cells were protected from light and incubated at room temperature for 20-30 minutes. Following the incubation, the cells were washed with 1 ml of Perm Wash buffer, resuspended in 300 μl of 2% FBS in PBS, and analyzed on the flow cytometer. Results are presented in Table 2 as the concentration of compound (μM) that inhibits of BrdU incorporation by 50%.

[6] = system: arrested IMR90 cells; assay: Arrested cell assay, arrested IMR90 normal cells; type: cell-based; conditions: Homo sapiens, IMR-90; serum-starved arrested cells, 72 hours; read-out: Arrested cell assay IMR90 IC50
Method: Cyclin-dependent kinase (Cdk) activity is required to promote the progression of cells through distinct phases of the cell division cycle. The proliferation of normal, non-transformed, cells in culture requires the presence of growth factors, the removal of which, through serum deprivation, leads to a loss of Cdk activity and consequent exit from the cell cycle as cells enter the quiescent phase, G0.
IMR90 cells were plated in triplicate for each compound concentration to be tested in MEM-A media containing 10% fetal calf serum at a density of either 2,000 or 20,000 cells per well in 24-well dishes and incubated overnight at 37° C., 5% CO2. The media was removed from the 20,000 cell-per-well dish, cells were washed once with serum-free media, and serum-free media was placed on cells. The plates containing cells both in the presence and absence of serum were incubated for 3 additional days.
The cells are incubated in the presence of the compounds for 72 hours (3 days) at 37° C. […] Cycling and arrested HCT-116 cells as well as cycling IMR90 cells were exposed to a panel of 6 doses ranging from 5 to 250 nM. For arrested normal cells, the range of doses was increased to 50 nM to 25 μM, to compensate for the expected decrease in activity.
The effect of 72 hours of compound exposure on cellular viability was assessed in the Calcein AM assay. Calcein AM is a fluorescent substrate of intracellular esterases that are only active in viable cells. Cleavage of the substrate thus provides a measure of viability, which is proportional to cell number.
A Calcein AM stock solution was prepared by dissolving a 50 μg aliquot (Molecular Probes catalogue # C3100) in 50 μl DMSO. The tube was incubated at room temperature for approximately 10 minutes to ensure that the Calcein had dissolved completely. The calcein was diluted into 10 ml PBS to prepare the final solution, which was protected from light.
The media was aspirated off the cells, which were then washed twice with 1 ml PBS to remove the PBS completely from cells by aspiration. 0.5 ml of the Calcein/PBS solution was transferred by pipette into each well. The plates were incubated at 37° C. for 75 minutes (protected from light) and read on a fluorescent plate reader (excitation 485/20 and emission 530/25).

[7] = HCT-116, non-protein adjusted, Table 6, read-out: HCT-116 viability IC50

T1 sequence (P11802 whole entry, species assumed): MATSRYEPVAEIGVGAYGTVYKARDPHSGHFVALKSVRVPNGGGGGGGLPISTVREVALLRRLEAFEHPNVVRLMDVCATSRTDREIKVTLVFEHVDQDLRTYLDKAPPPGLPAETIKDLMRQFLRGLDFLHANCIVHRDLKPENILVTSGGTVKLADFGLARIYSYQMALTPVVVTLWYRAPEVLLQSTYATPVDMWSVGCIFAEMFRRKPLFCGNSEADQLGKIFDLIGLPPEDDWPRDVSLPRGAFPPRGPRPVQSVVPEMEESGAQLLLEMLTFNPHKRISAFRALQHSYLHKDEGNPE
T1 sequence (P24385 whole entry partner, species assumed): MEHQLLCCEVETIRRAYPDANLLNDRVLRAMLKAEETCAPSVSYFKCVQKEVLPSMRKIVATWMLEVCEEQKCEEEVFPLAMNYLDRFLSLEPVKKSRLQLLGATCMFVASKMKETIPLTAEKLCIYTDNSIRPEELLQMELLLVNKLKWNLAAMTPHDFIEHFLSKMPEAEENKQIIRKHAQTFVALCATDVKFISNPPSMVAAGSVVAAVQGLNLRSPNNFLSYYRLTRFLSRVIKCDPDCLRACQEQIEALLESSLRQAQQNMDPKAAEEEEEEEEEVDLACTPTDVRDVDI
T3 sequence (P06493 whole entry, species assumed): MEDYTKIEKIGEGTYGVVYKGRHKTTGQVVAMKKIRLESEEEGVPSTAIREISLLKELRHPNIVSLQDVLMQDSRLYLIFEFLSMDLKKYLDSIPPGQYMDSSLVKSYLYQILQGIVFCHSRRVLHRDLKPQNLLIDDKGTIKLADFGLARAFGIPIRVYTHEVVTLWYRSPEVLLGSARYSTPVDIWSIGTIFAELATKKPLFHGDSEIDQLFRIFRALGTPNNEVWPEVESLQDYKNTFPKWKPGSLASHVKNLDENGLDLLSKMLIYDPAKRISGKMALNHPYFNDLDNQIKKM
T3 sequence (P14635 whole entry partner, species assumed): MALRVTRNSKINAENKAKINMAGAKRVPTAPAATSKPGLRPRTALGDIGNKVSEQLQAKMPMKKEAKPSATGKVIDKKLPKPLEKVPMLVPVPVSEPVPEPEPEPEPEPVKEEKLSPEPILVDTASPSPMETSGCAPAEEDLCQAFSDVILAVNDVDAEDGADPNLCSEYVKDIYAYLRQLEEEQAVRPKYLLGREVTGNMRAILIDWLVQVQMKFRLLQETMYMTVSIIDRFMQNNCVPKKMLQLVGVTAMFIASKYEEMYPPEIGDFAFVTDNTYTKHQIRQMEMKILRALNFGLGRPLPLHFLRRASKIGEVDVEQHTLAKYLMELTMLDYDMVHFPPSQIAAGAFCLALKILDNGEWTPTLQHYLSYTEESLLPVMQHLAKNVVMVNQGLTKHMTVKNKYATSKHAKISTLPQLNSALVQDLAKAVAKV

IC50 [1] [nM]	IC50 [2] [nM]	IC50 [3] [nM]	IC50 [4, 7] [nM]	IC50 ([5]; HCT-116, 72 h) [nM]	IC50 ([4]; HCT-116, plus 1 mg/ml alpha acidic glycoprotein and 45 mg/ml human serum albumin, read-out: HCT-116 IC50 Protein adjusted) [nM]	IC50 ([5]; HCT-116, 24 h) [nM]	IC50 ([4]; HCT-116, 72 h, Calcein AM, 72 hours, read-out: HCT-116 IC50 Viability) [nM]	Structure (SMILES)	IC50 [6] [nM]
< 1000	< 10	< 10	< 100	–	–	–	–	CC(C)c1nn(-c2c(Cl)cc(S(N)(=O)=O)cc2Cl)c2nc(Cc3ccc(OCCN4CCOCC4)cc3)[nH]c(=O)c12 [Compound A54]	–
< 10000	< 100	< 100	< 100	–	–	–	–	CC(C)c1nn(-c2c(Cl)cccc2Cl)c2nc(Cc3ccc(OCCOP(=O)(O)O)cc3)[nH]c(=O)c12 [Compound A62]	–
–	–	–	–	< 1000	< 100	–	–	CN1CCN(NC(=O)Nc2cccc3c2C(=O)c2c-3n[nH]c2-c2ccc(OCCN3CCCC3)cc2)CC1 [F]	> 1000
–	–	–	–	–	–	< 100	< 100	Cc1cc(OCCN2CCCC2)ccc1-c1[nH]nc2c1C(=O)c1c(NC(=O)NN3CCN(C)CC3)cccc1-2 [L]	–
< 1000	< 100	< 100	< 100	–	–	–	–	CC(C)c1nn(-c2c(Cl)cccc2Cl)c2nc(Cc3ccc(OCC(C)(C)O)cc3)[nH]c(=O)c12 [Compound A63]	–
< 1000	< 100	< 1000	< 100	–	–	–	–	CC(C)c1nn(-c2c(Cl)cccc2Cl)c2nc(Cc3ccc(C(=O)NOCCN4CCOCC4)cc3)[nH]c(=O)c12 [Compound A52]	–
< 1000	< 100	< 1000	< 100	–	–	–	–	CC(C)c1nn(-c2c(Cl)cc(Cl)cc2Cl)c2nc(Cc3ccc(CN4CCN(C(C)C)CC4)n3C)[nH]c(=O)c12 [Compound A42]	–
< 10000	< 1000	< 1000	< 10	–	–	–	–	CCN1CCN(S(=O)(=O)c2cc(Cl)c(-n3nc(C(C)C)c4c(=O)[nH]c(Cc5ccc(OCCN6CCOCC6)cc5)nc43)c(Cl)c2)CC1 [Compound A53]	–
< 100	< 10	< 100	< 100	–	–	–	–	CC(C)c1nn(-c2c(Cl)cccc2Cl)c2nc(Cc3ccc(O)cc3)[nH]c(=O)c12 [Compound A4]	–
< 10000	< 10	< 1000	< 100	–	–	–	–	CC(C)c1nn(-c2c(Cl)cccc2Cl)c2nc(Cc3ccc(OCCN4CCOCC4)cc3)[nH]c(=O)c12 [Compound A2]	–

Structure (SMILES)	IC50 [1] [nM]	IC50 [2] [nM]	IC50 [3] [nM]	IC50 [4, 7] [nM]	IC50 ([5]; HCT-116, 72 h) [nM]	IC50 ([4]; HCT-116, plus 1 mg/ml alpha acidic glycoprotein and 45 mg/ml human serum albumin, read-out: HCT-116 IC50 Protein adjusted) [nM]	IC50 ([5]; HCT-116, 24 h) [nM]	IC50 ([4]; HCT-116, 72 h, Calcein AM, 72 hours, read-out: HCT-116 IC50 Viability) [nM]	IC50 [6] [nM]
CC(C)N1CCN(C(=O)COc2ccc(-c3[nH]nc4c3C(=O)c3c(NC(=O)NN5CCOCC5)cccc3-4)cc2)CC1 [Compound A76]	< 100	< 100	< 100	< 100	–	–	–	–	–
